Assays:
B-Raf (V600E) = B-Raf (V600E) (Homo sapiens, UniProt P15056, V600E); experiment: Kinase test B-Raf (V600E); format: biochemical; details: 250 μM ATP, MEK1 substrate; read-out: IC50 value, B-Raf (V600E) inhibition test
Experimental: In a dilution series, 10 μL aliquots of test substance solution are placed in a multiwell plate. The dilution series is selected so as to cover a range of concentrations from 2 μM to 0.128 or 0.017 nM. If necessary the initial concentration is changed from 2 μM to 10 or 0.4 μM and further dilution is carried out accordingly. The final concentration of DMSO is 5%. 10 μL of the B-Raf (V600E) kinase solution are pipetted in (containing 2.5 ng B-Raf (V600E)-kinase in 20 mM TrisHCl pH 7.5, 0.1 mM EDTA, 0.1 mM EGTA, 0.286 mM sodium orthovanadate, 10% glycerol, 1 mg/mL bovine serum albumin, 1 mM dithiothreitol) and incubated for 1 h at RT with agitation. The kinase reaction is started by the addition of 20 μL ATP solution [final concentration: 250 μM ATP, 30 mM Tris-HCl pH 7.5, 0.02% Brij, 0.2 mM sodium-orthovanadate, 10 mM magnesium acetate, phosphatase cocktail (Sigma, #P2850, dilution recommended by the manufacturer), 0.1 mM EGTA] and 10 μL MEK1 solution [containing 50 ng biotinylated MEK1 (prepared from purified MEK1 according to standard procedure, e.g. with reagent EZ-Link Sulfo-NHS-LC-Biotin, Pierce, #21335) in 50 mM Hepes pH 7.5, 150 mM NaCl, 10% glycerol, 0.02% Brij-35, 0.2 mM PMSF, 0.2 mM benzamidine] and carried out for 60 min at RT with constant agitation. The reaction is stopped by the addition of 12 μL of a 100 mM EDTA solution and incubated for a further 5 min. 55 μL of the reaction solution are transferred into a streptavidine-coated plate (e.g. Streptawell HighBond, Roche, #11989685001) and shaken gently for 1 h at RT, in order to bind biotinylated MEK1 to the plate. After removal of the liquid the plate is washed five times with 200 μL of 1×PBS, and 100 μL solution of primary antibody plus europium-labelled secondary antibody [Anti Phospho-MEK (Ser217/221), Cell Signaling #9121 and Eu-N1 labeled goat-anti-rabbit antibody, Perkin Elmer #AD01015], the primary antibody is diluted 1:2000 and the secondary antibody is added to 0.4-0.5 μg/mL diluted in Delfia Assay Buffer (Perkin Elmer, #1244-111). After 1 h agitation at RT the solution is poured away and washed five times with 200 μL Delfia Wash Buffer (Perkin Elmer #4010-00101244-114). After the addition of 200 μL Enhancement Solution (Perkin Elmer #4001-00101244-105) the preparation is shaken for 10 min at RT and then measured in a Wallac Victor using the programme “Delfia Time Resolved Fluorescence (Europium)”.
IC50 values are determined from these dosage-activity curves using the software programme (GraphPadPrizm).

SK-MEL28 cells = experiment: Inhibition of proliferation on cultivated human melanoma cells (SK-MEL28), AlamarBlue; format: cell-based; details: SK-MEL-28, SK-MEL28, 72 hours incubation, read-out: EC50 value, cellular SK-MEL28 assay
Experimental: (§1) To measure proliferation on cultivated human tumour cells, cells of melanoma cell line SK-MEL28 [American Type Culture Collection (ATCC)] are cultivated in MEM medium, supplemented with 10% foetal calf serum, 2% sodium bicarbonate, 1 mM sodium pyruvate, 1% non-essential amino acids (e.g. from Cambrex, #BE13-114E) and 2 mM glutamine. SK-MEL28 cells are placed in 96-well flat-bottomed plates at a density of 2500 cells per well in supplemented MEM medium (see above) and incubated overnight in an incubator (at 37° C. and 5% CO2). The active substances are added to the cells in various concentrations so as to cover a range of concentrations from 50 μM to 3.2 nM. If necessary the initial concentration is changed from 50 μM to 10 μM or 2 μM and further dilution (to 0.6 nM or 0.12 nM) is carried out accordingly. After a further 72 hours incubation, 20 μl AlamarBlue reagent (Serotec Ltd., #BUF012B) is added to each well, and the cells are incubated for a further 3-6 hours. The colour change of the AlamarBlue reagent is determined in a fluorescence spectrophotometer (e.g. Gemini, Molecular Devices). EC50 values are calculated using the software programme (GraphPadPrizm).

A375 cells = experiment: Inhibition of proliferation on cultivated human melanoma cells (A375), AlamarBlue; format: cell-based; details: A-375, A375, method as for SK-MEL28, read-out: EC50 value, cellular A375 assay
Experimental: as §1
To measure proliferation on cultivated human tumour cells, cells of melanoma cell line A375 [American Type Culture Collection (ATCC)] are cultivated in MEM medium, supplemented with 10% foetal calf serum and 2% sodium bicarbonate. Test substances are tested on A375 cells according to the method described for SK-MEL28 cells (see above).

B-Raf (V600E), sequence (P15056 whole entry V600E): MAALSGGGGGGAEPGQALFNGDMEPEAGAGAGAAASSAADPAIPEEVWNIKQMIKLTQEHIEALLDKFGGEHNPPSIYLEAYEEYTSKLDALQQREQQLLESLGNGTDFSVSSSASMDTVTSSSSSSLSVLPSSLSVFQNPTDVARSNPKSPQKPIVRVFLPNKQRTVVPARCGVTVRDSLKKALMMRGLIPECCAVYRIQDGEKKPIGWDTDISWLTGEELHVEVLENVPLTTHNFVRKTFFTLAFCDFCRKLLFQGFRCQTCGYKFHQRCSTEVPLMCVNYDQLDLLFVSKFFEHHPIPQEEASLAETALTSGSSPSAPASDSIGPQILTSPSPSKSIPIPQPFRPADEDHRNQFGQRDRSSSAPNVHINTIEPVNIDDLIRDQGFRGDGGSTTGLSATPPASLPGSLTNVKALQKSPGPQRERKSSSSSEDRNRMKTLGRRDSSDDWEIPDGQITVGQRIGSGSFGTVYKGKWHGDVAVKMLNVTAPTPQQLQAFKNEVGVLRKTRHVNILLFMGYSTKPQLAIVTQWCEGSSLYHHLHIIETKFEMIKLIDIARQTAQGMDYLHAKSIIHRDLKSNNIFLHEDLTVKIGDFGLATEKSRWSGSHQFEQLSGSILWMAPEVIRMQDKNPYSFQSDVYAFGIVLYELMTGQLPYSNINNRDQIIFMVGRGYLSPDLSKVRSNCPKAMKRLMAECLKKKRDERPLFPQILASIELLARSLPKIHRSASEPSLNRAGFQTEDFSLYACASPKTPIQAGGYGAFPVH

Row | Compound | IC50 (B-Raf (V600E)) [µM] | EC50 (SK-MEL28 cells) [µM] | EC50 (A375 cells) [µM]
1 | Cc1ccc(C(=O)Nc2ccc(Cl)c(C(F)(F)F)c2)cc1-c1csc(-c2cccnc2)n1 [Example 5b-b] | < 0.5 |  | 
2 | COC(=O)c1cncc(-n2cc(-c3cc(C(=O)Nc4cc(C(C)(C)C)cc(NS(C)(=O)=O)c4OC)ccc3C)nn2)c1 [Example 1a] |  | < 5 | < 5
3 | Cc1ccc(C(=O)Nc2ccc(Cl)c(C(F)(F)F)c2)cc1-c1noc(-c2cccnc2)n1 [Example 2b] | < 0.5 |  | < 5

More lines, now with the values ahead:

Row | IC50 (B-Raf (V600E)) [µM] | EC50 (SK-MEL28 cells) [µM] | EC50 (A375 cells) [µM] | Compound
4 | < 0.5 | < 5 | < 5 | COc1c(NC(=O)c2ccc(C)c(-c3nc(-c4cccnc4)no3)c2)cc(C(C)(C)C)cc1NS(C)(=O)=O [Example 3a]
5 | < 0.5 |  | < 5 | COc1c(NC(=O)c2ccc(C)c(-c3noc(-c4cccnc4)n3)c2)cc(C(C)(C)C)cc1NS(C)(=O)=O [Example 2a]
6 | < 0.5 | < 5 | < 5 | Cc1ccc(C(=O)Nc2cc(C(C)(C)C)n[nH]2)cc1-c1csc(-c2cccnc2)n1 [Example 5b-a]
7 |  | < 5 | < 5 | Cc1ccc(C(=O)Nc2cc(C(C)(C)C)on2)cc1-c1c[nH]c(-c2cccnc2)n1 [Example 6c]

From patent publication US20100240657A1, “CHEMICAL COMPOUNDS” (BOEHRINGER INGELHEIM INTERNATIONAL GMBH, priority 2007, published 2010)
